For this series, the system named is PBS pH 7.4 kinetic solubility, LC-UV/MS. The series is described as follows: qHTS for Inhibitors of mutant isocitrate dehydrogenase 1 (IDH1): Aqueous Kinetic Solubility. Conditions: hits give high values. The text has this: Malignant glioblastomas (WHO grade IV), including primary and secondary glioblastomas, are among the most lethal with a median survival of one year, and unfortunately they are also the most prevalent type of brain tumors. By and large the standard of care of gliomas remains the use of the oral alkylating agent temozolomide and radiotherapy following surgical tumor resection. There is an urgent unmet medical need for novel therapeutics for gliomas. IDH mutations occur in up to 70% of grade II-IV secondary glioblastomas, and IDH1 R132H is the most prevalent mutation. […] Wild-type (WT) IDH1 catalyzes the conversion of isocitrate to a-ketoglutarate with the concomitant reduction of NADP+ to NADPH. In contrast, IDH1 R132H catalyzes the conversion of a-ketoglutarate to 2-hydroxyglutarate (2-HG) with the concomitant oxidation of NADPH to NADP+ [5]. Recently, a second significant advancement for the field was the finding that IDH is an oncogene, and that its metabolic product 2-HG may contribute to the pathogenesis of IDH-mutated cancers. […] Although this link to cancer is tantalizing, the direct evidence of how 2-HG drives pathogenesis of gliomas and AML remains a subject of further research. This bioassays provides profiling data on aqueous kinetic solubility (PBS @ pH7.4) of the IDH probe. […]
1. […] Concentration of the supernatant was determined by LC-UV or LC-MS/MS

Solubility data for 1 molecule are collected here from PubChem BioAssay AID624462 (National Center for Advancing Translational Sciences (NCATS), 2012).

A word on the solubility: it is how much of the substance goes into solution per volume.

Converted amounts (≈) assume the structure as drawn.

With `Cc1ccccc1C(C(=O)NC1CCCC1)N(C(=O)Cn1cnc2ccccc21)c1cccc(F)c1` (stereo unspecified), the solubility was 54.3 µM (≈ 26.3 µg/mL).
